According to PubChem BioAssay AID588630 (NMMLSC, 2011):
“And” between values parts separate entries of the source, which are not always exact repeats. Equal values may be shown once. The source made the active and inactive calls.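 Rule for the calls: active = fitted potency at or below 10 µM with a response change of at least 30% across doses and an acceptable curve fit; inactive = the rest.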

Target: GTPase HRas (Homo sapiens) (UniProt P01112)
Test: H-Ras wildtype GTP-binding inhibitors, SAR follow-up, biochemical, GST-H-Ras beads, Bodipy-FL-GTP, flow cytometry, multiplex, round 2 (AID 588630)
Conditions: not given

Chain of GTPase HRas (Homo sapiens) (P01112 whole entry, looked up): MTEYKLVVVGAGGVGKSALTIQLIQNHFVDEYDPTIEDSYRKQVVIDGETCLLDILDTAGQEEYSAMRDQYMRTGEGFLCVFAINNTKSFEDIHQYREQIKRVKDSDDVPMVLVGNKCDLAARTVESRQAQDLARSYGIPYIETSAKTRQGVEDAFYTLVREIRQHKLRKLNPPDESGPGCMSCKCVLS

Q: With `CCC1(C)Cc2c(sc(NC(=S)NC(=O)c3ccccc3)c2C(=O)O)CO1` (centres undefined) as the molecule, how does the EC50 read?
A: Its EC50 is 37 nM.

Q: For `Cc1cccc(C(=O)NC(=S)Nc2sc3c(c2C(=O)O)CC(C)(C)OC3)c1`, which EC50 is on record?
A: Its EC50 is 1390 nM.

Q: With `CC1(C)Cc2c(sc(NC(=S)NC(=O)c3ccccc3)c2C(=O)O)CO1` as the molecule, how does the EC50 read?
A: Its EC50 is 20 nM.

Q: With `CC1(C)Cc2c(sc(NC(=S)NC(=O)c3ccc(F)cc3)c2C(=O)O)CO1` as the molecule, how does the EC50 read?
A: The EC50 was 98 nM.

Q: How did the EC50 turn out when `COc1ccccc1C(=O)NC(=S)Nc1sc2c(c1C(=O)O)CC(C)(C)OC2` was run?
A: Its EC50 is 1320 nM.

Q: Which EC50 does the source give for `CC1Cc2c(sc(NC(=S)NC(=O)c3ccccc3)c2C(=O)O)CO1` (centres undefined) here?
A: The EC50 was 201 nM.

Q: With `CC1(C)Cc2c(sc(NC(=S)NC(=O)c3cccc(F)c3)c2C(=O)O)CO1` as the molecule, how does the EC50 read?
A: The EC50 was 436 nM.

Q: How did the EC50 turn out when `CC1(C)Cc2c(sc(NC(=S)NC(=O)c3ccc(Br)cc3)c2C(=O)O)CO1` was run?
A: Its EC50 is 597 nM.

Q: Which EC50 does the source give for `CC1(C)Cc2c(sc(NC(=S)NC(=O)c3ccccc3F)c2C(=O)O)CO1` here?
A: The EC50 was 359 nM.

Q: For `CC1(C)Cc2c(sc(NC(=S)NC(=O)c3ccccc3Br)c2C(=O)O)CO1`, which EC50 is on record?
A: The EC50 was 1780 nM.

Q: For `CC1(C)Cc2c(sc(NC(=S)NC(=O)c3ccco3)c2C(=O)O)CO1`, which EC50 is on record?
A: Its EC50 is 79 nM.

Q: How did the EC50 turn out when `CC1(C)Cc2c(sc(NC(=S)NC(=O)C3CCCCC3)c2C(=O)O)CO1` was run?
A: The EC50 was 625 nM.

Q: For `Cc1ccc(C(=O)NC(=S)Nc2sc3c(c2C(=O)O)CC(C)(C)OC3)cc1`, which EC50 is on record?
A: The EC50 was 193 nM.

Q: For `O=C(NC(=S)Nc1sc2c(c1C(=O)O)CCOC2)c1ccccc1`, which EC50 is on record?
A: The EC50 was 106 nM and 242 nM.

Q: With `COc1cccc(C(=O)NC(=S)Nc2sc3c(c2C(=O)O)CC(C)(C)OC3)c1` as the molecule, how does the EC50 read?
A: The EC50 was 275 nM.

Q: `CC1(C)CCc2sc(NC(=S)NC(=O)c3ccccc3)c(C(=O)O)c2C1` was tested. Which EC50 did it give?
A: The EC50 was 43 nM.

Q: For `COc1ccc(C(=O)NC(=S)Nc2sc3c(c2C(=O)O)CC(C)(C)OC3)cc1`, which EC50 is on record?
A: Its EC50 is 250 nM.

Q: With `O=C(NC(=S)Nc1sc2c(c1C(=O)O)CC1(CCCC1)OC2)c1ccccc1` as the molecule, how does the EC50 read?
A: The EC50 was 31 nM.

Q: For `CC1(C)Cc2c(sc(NC(=O)NC(=O)c3ccccc3)c2C(=O)O)CO1`, which EC50 is on record?
A: The EC50 was 725 nM.

Q: `CC(C)(C)C1Cc2c(sc(NC(=S)NC(=O)c3ccccc3)c2C(=O)O)CO1` (centres undefined) was tested. Which EC50 did it give?
A: The EC50 was 140 nM.

Q: Which EC50 does the source give for `Cc1ccccc1C(=O)NC(=S)Nc1sc2c(c1C(=O)O)CC(C)(C)OC2` here?
A: Its EC50 is 444 nM.

Q: How did the EC50 turn out when `CC1(C)Cc2c(sc(NC(=S)NC(=O)c3cccs3)c2C(=O)O)CO1` was run?
A: Its EC50 is 35 nM.

Same assay, conditions: at 100 µM (top of the series)

Q: How did the “% response (remaining GTP binding)” value turn out when `CC1(C)Cc2c(sc(NC(=S)NC(=O)c3cccc(Br)c3)c2C(=O)O)CO1` was run?
A: Its value is “inactive”.

Q: How did the “% response (remaining GTP binding)” value turn out when `CC1(C)Cc2c(sc(NC(=S)Nc3ccccc3)c2C(=O)O)CO1` was run?
A: Its value is “inactive”.
